Measurements from patent publication US20140249105A1, “NOVEL CERAMIDE ANALOGUES, PROCESSES FOR PREPARING SAME AND USES THEREOF” (Diverchim, priority 2011, published 2014).

Columns and labels:
[1] = test system: B16 melanocytes; assay: Viability of the cells, test of reduction of MTT; type: cell-based; conditions: 72 h
Description: (§1) Melanocytes were seeded on a 96-well plate and cultured for 24 h (37° C., 5% CO2, DMEM 1 g/L glucose without phenol red supplemented with glucose 3 g/L, L-glutamine 2 mM, penicillin 50 U/mL, streptomycin 50 μg/mL, fetal calf serum (FCS) 10%). […] Each experimental condition was carried out with n=3, apart from the controls carried out with n=6. The cells were then incubated for 72 h. Wells without cells received in parallel the same quantities of medium, supplemented or not with NDP-MSH and with or without the test compounds or the reference in order to quantify the background noise associated with the presence of the compounds.
At the end of the treatment, the cells were incubated in the presence of MTT (3-(4,5-dimethylthiazol-2-yl)-2,5-diphenyl tetrazolium bromide), the conversion of which to blue crystals of formazan is proportional to the activity of succinate dehydrogenase (mitochondrial enzyme). After disruption of the cells, the formazan was dissolved in DMSO medium and the optical density (OD), representative of the number of live cells and of their metabolic reactivity, was measured with a microplate reader at 540 nm (VERSAmax, Molecular Devices).

[2] = test system: B16 melanocytes; assay: Screening of anti-melanogenesis activity: melanin assay in B16 melanocytes stimulated with NDP-MSH; type: cell-based; conditions: 72 h
Description: This was carried out for compounds in solution in DMSO. The synthesis of melanin was measured in a model of B16 melanocytes stimulated with a stable derivative of α-MSH (natural hormone that stimulates melanogenesis: Melanocyte Stimulating Hormone): NDP-MSH ([Nle^4, DPhe7]-α-MSH).
as §1
At the end of 72 hours of incubation, the total melanin (intra- and extracellular) was quantified by measuring the absorbance of each sample at 405 nm (direct reading of the culture plates) against a standard range of melanin (melanin concentrations tested from 0.78 to 100 μg/mL). The background noise, measured in the wells without cells, was subtracted from the values measured so that only the effect connected with the production of melanin is taken into account, without including any interference connected with the presence of the compounds. The results were expressed in percentage of melanin relative to the control as well as in percentage inhibition.

Compound | Viability (MTT) % stimulated control ([1]; 30 μM) [% stimulated control] | Viability (MTT) % stimulated control ([1]; 100 μM) [% stimulated control] | Normalized data inhibition (%) ([2]; 30 μM) | Normalized data inhibition (%) ([2]; 100 μM) | other results
O=C(N[C@@H]1CC[C@H](NC(=O)/C(F)=C/CCCCCCCOC2CCCCO2)C1)/C(F)=C/CCCCCCCOC1CCCCO1 (some centres unmarked) [c68] | 64 | 50 | 95 | 108 | 
O=C(NC1CCCC1NC(=O)C(F)=CCCCCCOC1CCCCO1)C(F)=CCCCCCOC1CCCCO1 (centres unmarked) [c107] | 95 | 26 | 66 | 120 | 
O=C(NC1CCC(NC(=O)C(F)=CCCCCCCCOC2CCCCO2)C1)C(F)=CCCCCCCCOC1CCCCO1 (mixture of isomers) [c69] | 87 | 78 | 116 | 112 | 
O=C(NC1CC1NC(=O)C(F)=CCCCCCOC1CCCCO1)C(F)=CCCCCCOC1CCCCO1 (centres unmarked) [c111] | 98 | 57 | 25 | 108 | 
O=C(NC1CC1NC(=O)C(F)=CCCCCCOC1CCCCO1)C(F)=CCCCCCOC1CCCCO1 (mixture of isomers) [c108] | 75 | 80 | 73 | 105 | 
O=C(NC1CCC(NC(=O)C(F)=CCCCCCOC2CCCCO2)C1)C(F)=CCCCCCOC1CCCCO1 (centres unmarked) [c8] | 86 | 77 | 86 | 115 | 
O=C(NC1CCC(NC(=O)C(F)=CCCCCCO)C1)C(F)=CCCCCCO (racemic) [c115] | 94 | 97 | 0 | 95 | 
O=C(NC1CCCC1NC(=O)C(F)=CCCCCCCCOC1CCCCO1)C(F)=CCCCCCCCOC1CCCCO1 (mixture of isomers) [c66] | 96 | 93 | 119 | 118 | 
O=C(N[C@@H]1CC[C@H](NC(=O)/C(F)=C\CCCCCCCOC2CCCCO2)C1)/C(F)=C\CCCCCCCOC1CCCCO1 (some centres unmarked) [c70] | 90 | 86 | 115 | 116 | 
O=C(/C=C/CCCCCCCCO)N[C@H]1CCC[C@H]1NC(=O)/C=C/CCCCCCCCO [c15] | 76 | 74 | 2 | 73 | 
O=C(NC1CC1NC(=O)C(F)=CCCCCCOC1CCCCO1)C(F)=CCCCCCOC1CCCCO1 (racemic) [c110] | 83 | 0 | 104 | 120 | 
O=C(NC1CCC(NC(=O)C(F)=CCCCCCOC2CCCCO2)C1)C(F)=CCCCCCOC1CCCCO1 (centres unmarked) [c149] | 87 | 28 | 108 | 120 | 
O=C(N[C@@H]1CC[C@H](NC(=O)/C(F)=C\CCCCCOC2CCCCO2)C1)/C(F)=C\CCCCCOC1CCCCO1 (some centres unmarked) [c106] | 73 | 36 | 114 | 119 | 
O=C(/C=C/CCCCCCCCCCCOC1CCCCO1)N[C@@H]1CC[C@H](NC(=O)/C=C/CCCCCCCCCCCOC2CCCCO2)C1 (some centres unmarked) [c30] | 76 |  |  |  | Viability (MTT) % stimulated control ([1]; 10 μM): 77 % stimulated control; inhibition at 10 µM ([2]; Melanocyte, 10 μM, read-out: Normalized data inhibition (%)): 42%; inhibition at 30 µM ([2]; Melanocyte, 30 μM, read-out: Normalized data inhibition (%)): 71%
O=c1cc(CO)occ1O [Kojic acid, reference compound] |  |  |  |  | Viability (MTT) % stimulated control ([1]; 25 μg/mL): 103 % stimulated control; Viability (MTT) % stimulated control ([1]; 100 μg/mL): 99 % stimulated control; Viability (MTT) % stimulated control ([1]; 400 μg/mL): 96 % stimulated control; inhibition at 25 µg/mL ([2]; Melanocyte, 25 μg/mL, read-out: Normalized data inhibition (%)): 59%; inhibition at 100 µg/mL ([2]; Melanocyte, 100 μg/mL, read-out: Normalized data inhibition (%)): 83%; inhibition at 400 µg/mL ([2]; Melanocyte, 400 μg/mL, read-out: Normalized data inhibition (%)): 93%
CCCCCC=CCC=CCCCCCCCC(=O)NC1CC1NC(=O)CCCCCCCC=CCC=CCCCCC (centres unmarked) [c122] |  |  | 8 | 109 | 
O=C(NC1CCCC1NC(=O)C(F)=CCCCCCCCO)C(F)=CCCCCCCCO (mixture of isomers) [c46] | 77 | 68 | 0 | 75 | 
O=C(N[C@H]1CCC[C@H]1NC(=O)/C(F)=C\CCCCCCCCOC1CCCCO1)/C(F)=C\CCCCCCCCOC1CCCCO1 (some centres unmarked) [c72] | 102 | 86 | 87 | 112 | 
O=C(N[C@H]1C[C@H]1NC(=O)C(F)=CCCCCCCCCCCCCCCCO)C(F)=CCCCCCCCCCCCCCCCO [c44] |  |  |  |  | Viability (MTT) % stimulated control ([1]; 1 μM): 87 % stimulated control; Viability (MTT) % stimulated control ([1]; 3 μM): 88 % stimulated control; Viability (MTT) % stimulated control ([1]; 10 μM): 91 % stimulated control; Normalized data inhibition (%) ([2]; 1 μM): −11%; Normalized data inhibition (%) ([2]; 3 μM): 36%; Normalized data inhibition (%) ([2]; 10 μM): 69%
O=C(N[C@H]1CCC[C@H]1NC(=O)/C(F)=C\CCCCCCCOC1CCCCO1)/C(F)=C\CCCCCCCOC1CCCCO1 (some centres unmarked) [c67] | 71 | 81 | 119 | 116 | 
O=C(NC1CCCC1NC(=O)C(F)=CCCCCCCCCOC1CCCCO1)C(F)=CCCCCCCCCOC1CCCCO1 (mixture of isomers) [c71] | 116 | 104 | 93 | 109 | 
(E)-14-tetrahydropyranyloxy-tetradec-2-enoic acid [Ref3, reference compound] | 92 |  | 0 | 11 | 
O=C(N[C@@H]1CC[C@H](NC(=O)/C(F)=C/CCCCCCCCO)C1)/C(F)=C/CCCCCCCCO [c58] | 101 | 98 | 62 | 83 | 
CCCCCC=CCC=CCCCCCCCC(=O)NC1CCC(NC(=O)CCCCCCCC=CCC=CCCCCC)C1 (centres unmarked) [c135] |  |  | 0 | 90 | 
